{"source": "patent US10179781B2", "about": "“Sodium channel modulators for the treatment of pain” (CHROMOCELL CORPORATION, priority 2013, dated 2019)"}
{"molecular_target": "T1, NaV1.7 (Homo sapiens, UniProt Q15858)", "T1 construct": "expressed in transfected cells", "T1 sequence (Q15858 whole entry)": "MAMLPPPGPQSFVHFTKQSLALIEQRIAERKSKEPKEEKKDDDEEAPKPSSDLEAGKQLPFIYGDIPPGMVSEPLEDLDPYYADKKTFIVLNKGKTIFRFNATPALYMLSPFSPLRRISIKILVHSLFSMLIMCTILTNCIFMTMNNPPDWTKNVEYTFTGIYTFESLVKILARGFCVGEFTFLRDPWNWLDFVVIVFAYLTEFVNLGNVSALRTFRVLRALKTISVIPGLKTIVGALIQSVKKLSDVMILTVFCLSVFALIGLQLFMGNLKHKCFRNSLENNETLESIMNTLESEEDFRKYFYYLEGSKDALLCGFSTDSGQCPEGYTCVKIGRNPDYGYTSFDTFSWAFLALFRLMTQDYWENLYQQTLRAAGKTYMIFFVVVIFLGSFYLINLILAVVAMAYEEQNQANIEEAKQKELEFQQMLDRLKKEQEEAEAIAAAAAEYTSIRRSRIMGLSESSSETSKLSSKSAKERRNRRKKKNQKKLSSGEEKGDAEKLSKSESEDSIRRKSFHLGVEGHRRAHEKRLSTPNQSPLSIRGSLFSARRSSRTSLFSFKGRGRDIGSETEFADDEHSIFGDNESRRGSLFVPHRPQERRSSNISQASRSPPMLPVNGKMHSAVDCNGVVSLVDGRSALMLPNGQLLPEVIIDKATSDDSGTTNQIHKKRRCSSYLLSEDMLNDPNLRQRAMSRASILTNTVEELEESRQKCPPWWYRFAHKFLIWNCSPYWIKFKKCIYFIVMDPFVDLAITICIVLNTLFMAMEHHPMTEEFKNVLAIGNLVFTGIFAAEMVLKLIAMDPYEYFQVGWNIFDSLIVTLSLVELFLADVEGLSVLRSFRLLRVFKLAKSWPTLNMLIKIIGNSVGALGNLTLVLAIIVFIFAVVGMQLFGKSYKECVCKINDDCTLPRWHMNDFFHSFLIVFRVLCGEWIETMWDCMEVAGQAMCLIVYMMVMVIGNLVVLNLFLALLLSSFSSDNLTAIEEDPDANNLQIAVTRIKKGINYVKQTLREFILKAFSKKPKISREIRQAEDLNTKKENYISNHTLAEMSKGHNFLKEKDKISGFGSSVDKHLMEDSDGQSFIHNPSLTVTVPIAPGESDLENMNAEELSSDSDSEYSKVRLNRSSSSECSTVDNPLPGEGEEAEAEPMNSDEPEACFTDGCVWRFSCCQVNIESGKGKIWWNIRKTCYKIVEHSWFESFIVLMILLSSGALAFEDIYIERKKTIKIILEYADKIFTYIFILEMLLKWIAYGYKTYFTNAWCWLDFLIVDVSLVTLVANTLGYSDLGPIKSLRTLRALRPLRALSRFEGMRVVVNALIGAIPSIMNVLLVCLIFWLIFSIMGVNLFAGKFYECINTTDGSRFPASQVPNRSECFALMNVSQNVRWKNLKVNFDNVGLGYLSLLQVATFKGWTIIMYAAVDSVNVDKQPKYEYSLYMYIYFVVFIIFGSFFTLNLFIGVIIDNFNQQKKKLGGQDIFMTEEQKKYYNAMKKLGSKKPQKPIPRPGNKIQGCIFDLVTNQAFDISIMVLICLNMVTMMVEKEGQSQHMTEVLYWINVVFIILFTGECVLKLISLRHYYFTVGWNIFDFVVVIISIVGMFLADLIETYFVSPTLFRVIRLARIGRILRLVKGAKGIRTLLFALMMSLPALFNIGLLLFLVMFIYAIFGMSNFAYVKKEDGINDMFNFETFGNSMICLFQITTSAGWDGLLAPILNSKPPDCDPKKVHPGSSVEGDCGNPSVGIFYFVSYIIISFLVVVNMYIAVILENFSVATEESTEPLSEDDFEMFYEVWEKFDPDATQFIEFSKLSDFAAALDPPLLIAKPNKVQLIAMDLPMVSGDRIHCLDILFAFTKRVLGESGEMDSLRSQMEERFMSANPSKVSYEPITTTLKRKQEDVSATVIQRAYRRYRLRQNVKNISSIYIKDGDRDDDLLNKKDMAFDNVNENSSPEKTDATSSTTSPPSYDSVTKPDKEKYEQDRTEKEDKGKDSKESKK", "T1 sequence (Q07699 19-218 partner)": "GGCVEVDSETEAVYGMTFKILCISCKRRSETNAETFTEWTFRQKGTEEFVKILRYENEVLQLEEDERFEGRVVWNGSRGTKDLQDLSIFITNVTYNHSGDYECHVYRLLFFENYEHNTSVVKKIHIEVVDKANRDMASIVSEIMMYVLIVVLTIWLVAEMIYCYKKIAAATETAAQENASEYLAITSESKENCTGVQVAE", "T1 sequence (O60939 30-215 partner)": "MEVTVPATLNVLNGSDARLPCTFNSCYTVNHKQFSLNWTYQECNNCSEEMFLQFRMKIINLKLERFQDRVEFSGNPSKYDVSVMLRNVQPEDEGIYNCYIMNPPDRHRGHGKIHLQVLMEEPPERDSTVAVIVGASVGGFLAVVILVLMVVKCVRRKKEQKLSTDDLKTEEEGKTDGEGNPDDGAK", "assay": "FDSS membrane potential in-vitro assay", "type": "cell-based", "conditions": "HEK293 cells expressing NaV1.7 α, β1, β2, veratridine and scorpion venom stimulation", "units": {"IC50": "nM"}}
{"smiles": "O=C(O)CNCCCc1cc(Cl)ccc1Oc1cc(F)c(S(=O)(=O)Nc2cscn2)cc1F", "note": "[Example 21, 2-((3-(5-chloro-2-(2,5-difluoro-4-(N-(thiazol-4-yl)sulfamoyl)phenoxy)phenyl)propyl)amino)acetic acid]", "IC50": "> 1000"}
{"smiles": "O=C(O)CCNCCCc1cc(Cl)ccc1Oc1cc(F)c(S(=O)(=O)Nc2cscn2)cc1F", "note": "[Example 22, 3-((3-(5-chloro-2-(2,5-difluoro-4-(N-(thiazol-4-yl)sulfamoyl)phenoxy)phenyl)propyl)amino)propanoic acid]", "IC50": "> 1000"}
{"smiles": "N#Cc1cc(S(=O)(=O)Nc2cscn2)ccc1Oc1ccc(Cl)cc1CCCNCCC(=O)O", "note": "[Example 23, 3-((3-(5-chloro-2-(2-cyano-4-(N-(thiazol-4-yl)sulfamoyl)phenoxy)phenyl)propyl)amino)propanoic acid]", "IC50": "> 1000"}
{"smiles": "NC(CCNCCCc1cc(Cl)ccc1Oc1cc(F)c(S(=O)(=O)Nc2cscn2)cc1Cl)C(=O)O", "note": "(stereo not shown) [Example 17, 2-amino-4-((3-(5-chloro-2-(2-chloro-5-fluoro-4-(N-(thiazol-4-yl)sulfamoyl)phenoxy)phenyl)propyl)amino)butanoic acid]", "IC50": "> 1000"}
{"smiles": "O=C(O)C1CCN(CCCc2cc(Cl)ccc2Oc2cc(F)c(S(=O)(=O)Nc3cscn3)cc2Cl)CC1", "note": "[Example 14, 1-(3-(5-chloro-2-(2-chloro-5-fluoro-4-(N-(thiazol-4-yl)sulfamoyl)phenoxy)phenyl)propyl)piperidine-4-carboxylic acid]", "IC50": "> 1000"}
{"smiles": "O=C(O)C1CCCN(CCCc2cc(Cl)ccc2Oc2cc(F)c(S(=O)(=O)Nc3cscn3)cc2Cl)C1", "note": "(stereo not shown) [Example 19, 1-(3-(5-chloro-2-(2-chloro-5-fluoro-4-(N-(thiazol-4-yl)sulfamoyl)phenoxy)phenyl)propyl)piperidine-3-carboxylic acid]", "IC50": "> 1000"}
{"test_system": "Acetic Acid Writhing Model", "assay": "Acetic Acid Writhing Model (visceral pain)", "type": "in vivo", "conditions": "relative to vehicle control; 10 to 30 mg/kg intraperitoneal", "description": "Writhing Model The Acetic Acid Writhing Model is associated with visceral pain (abdominal pain, such as stomach pain, and pain caused by, for example, bile duct congestion and kidney stones). A writhing test assesses acute peritoneovisceral pain. After acclimation of 2-3 days, a test compound, positive control or vehicle control is administered by intraperitoneal injection (i.p.) or by oral gavage 15-30 minutes prior to administration of acetic acid. The time of administration of test compound is recorded. For mice: 0.6% Acetic acid solution in saline is injected i.p in a volume of 10 ml/kg. For rats: 4% acetic acid in saline is injected i.p in a volume of 2 ml/kg at T=0 minutes. Each animal is placed in a clear plastic cage. At T=5 minutes, the number of writhing movements is counted over a 45 minute period. Alternatively, the writhing movements are counted over a 5-minute period and repeated every 5 minutes, starting at T=5 minutes over a 45-minute period."}
{"smiles": "O=C(O)CNC(=O)c1cc(-c2cc(Cl)ccc2Oc2cc(F)c(S(=O)(=O)Nc3ncns3)cc2Cl)ccn1", "note": "[Example 2, 2-(4-(2-(4-(N-(1,2,4-thiadiazol-5-yl)sulfamoyl)-2-chloro-5-fluorophenoxy)-5-chlorophenyl)picolinamido)acetic acid]", "reduction in pain response, writhing": "48-58%"}
